# Data reported in patent US20260199325A1, “NOVEL SUBSTITUTED PYRAZINE-CARBOXAMIDE-IMIDAZOPYRIDINE DERIVATIVES” (Boehringer Ingelheim International GmbH, priority 2022, published 2026).
# Biological target: T1, human metabotropic Glutamate 4 receptor (Homo sapiens, UniProt Q14833)
# T1 construct: expressed in transfected cells; host or cells: HEK293
# Assay: In vitro testing of mGluR4 potency (Assay A), cAMP HTRF in HEK293 cells
# Assay type: cell-based
# Conditions: Table 2; HEK293 cell overexpressing human mGluR4; 10 uM L-Glutamic acid, 1 uM forskolin
# Description: A. In Vitro Testing of mGluR4 Potency
# The in vitro activity of the compounds according to the invention may be investigated as follows:
# The HEK293 cell overexpressing the human metabotropic Glutamate 4 receptor were thawed at 37° C. and immediately diluted with cell culture medium. After centrifugation, the cell pellet is re-suspended in medium and then distributed from a stirred spinner flask into the wells of the assay plate. The plates are incubated for one hour at room temperature before they are incubated for 24 hours at 37° C./5% C02. After washing the cells in the plate three times with 80 uL HBSS/HEPES buffer (10 uL buffer remained in the wells after washing), 5 uL per well of compounds diluted in HBSS/HEPES buffer containing 0.2% BSA (final concentration: 0.1%) and 1 mM IBMX (final concentration: 0.5 mM) are added to the wells of the assay plate. Thereafter 5 uL per well of L-Glutamic acid (final concentration: 10 uM), forskolin (final concentration: 1 uM) and 1 mM IBMX (final concentration: 0.5 mM) dissolved in HBSS/HEPES buffer containing 0.2% BSA (final concentration: 0.1%) are added to the assay plate (final DMSO concentration: 1%). Several wells of the assay plate are used either for the positive and the negative controls or for the cAMP standard curve. The assay plate is incubated for 30 minutes at room temperature. Then 5 ul per well of Anti-cAMP-Antibody-d2 solution and 5 ul per well of cAMP-Europium Cryptate dilution are added to all wells of the plate and the plate is incubated another 60 minutes light protected at room temperature. The emission at 615 nm and 665 nm (Excitation wavelength: 320 nm) are measured on the EnVision™ reader (PerkinElmer). The ratio between the emission at 665 nm and 615 is calculated by the reader. The whole assay is performed in the dark or under green light.
# The cAMP standard is prepared by diluting the cAMP stock solution with HBSS/Hepes buffer: 5 μl/well of the cAMP dilutions (in HBSS/Hepes buffer containing 1 mM IBMX and 0.2% BSA-final concentration: 0.5 mM IBMX and 0.1% BSA) are added to 10 ul/well HBSS/Hepes buffer plus 5 ul/well 4% DMSO in HBSS/Hepes containing 0.2% BSA (final DMSO concentration: 1%-like in the wells containing compounds) in the wells of the assay plate. The final cAMP concentrations in the assay plate were: 0, 0.17, 0.69, 2.78, 11.1, 44.5, 178, and 712 nM (two wells/cAMP concentration).
# Each assay microtiter plate contained also wells with vehicle controls instead of compound as controls for L-Glutamic acid induced signal (negative control; 100% CTL; 10 uM L-Glutamic acid+1 uM forskolin+0.5 mM IBMX+1% DMSO) and wells with vehicle controls without L-Glutamic acid as controls for non-specific changes in signal (positive control; 0% CTL; 0 uM L-Glutamic acid+1 uM forskolin+0.5 mM IBMX+1% DMSO).
# The analysis of the data is performed by the calculation the ratio between the emission at 665 nm and the emission at 615 nm (Em665/Em615 ratio). Thereafter the signals of the compounds are normalized using the positive and negative controls by the following formula:
# PoC=100×((Signal Sample−Positive Control)/(Negative Control−Positive Control))
# T1 sequence (Q14833 33-912): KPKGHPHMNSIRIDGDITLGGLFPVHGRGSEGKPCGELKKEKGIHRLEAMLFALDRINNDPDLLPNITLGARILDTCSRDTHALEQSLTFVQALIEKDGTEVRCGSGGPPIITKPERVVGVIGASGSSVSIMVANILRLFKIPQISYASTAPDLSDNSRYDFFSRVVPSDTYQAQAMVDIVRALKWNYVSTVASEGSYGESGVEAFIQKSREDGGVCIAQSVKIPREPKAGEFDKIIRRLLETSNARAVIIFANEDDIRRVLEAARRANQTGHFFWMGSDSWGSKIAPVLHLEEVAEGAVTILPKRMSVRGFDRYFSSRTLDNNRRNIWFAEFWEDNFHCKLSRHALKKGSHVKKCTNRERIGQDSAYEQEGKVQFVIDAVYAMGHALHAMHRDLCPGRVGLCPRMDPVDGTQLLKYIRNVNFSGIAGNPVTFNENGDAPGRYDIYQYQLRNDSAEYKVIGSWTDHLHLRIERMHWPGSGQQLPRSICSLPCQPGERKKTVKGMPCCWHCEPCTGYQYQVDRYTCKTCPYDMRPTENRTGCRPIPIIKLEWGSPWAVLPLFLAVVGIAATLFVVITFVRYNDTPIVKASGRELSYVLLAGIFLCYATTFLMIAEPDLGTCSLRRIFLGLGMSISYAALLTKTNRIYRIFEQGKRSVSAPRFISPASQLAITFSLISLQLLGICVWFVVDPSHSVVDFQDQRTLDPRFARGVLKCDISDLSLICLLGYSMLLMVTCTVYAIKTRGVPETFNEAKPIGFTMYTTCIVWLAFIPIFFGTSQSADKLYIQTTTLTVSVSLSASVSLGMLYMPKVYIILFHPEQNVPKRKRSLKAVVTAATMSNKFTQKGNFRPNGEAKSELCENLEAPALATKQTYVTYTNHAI
row,Compound,IC50 [nM]
1,"Cc1cnc(C(=O)N[C@H](c2nc3ccc(C(F)(F)F)nc3n2C(C)C)C2CC2)cn1 [Example 8, N-[(S)-cyclopropyl[3-(propan-2-yl)-5-(trifluoromethyl)-3H-imidazo[4,5-b]pyridin-2-yl]methyl]-5-methylpyrazine-2-carboxamide]",3
2,"COC(C)(C)[C@H](NC(=O)c1cnc(C)cn1)c1nc2cc(Cl)cnc2n1C(C)C [Example 9, N-[(1R)-1-[6-chloro-3-(propan-2-yl)-3H-imidazo[4,5-b]pyridin-2-yl]-2-methoxy-2-methylpropyl]-5-methylpyrazine-2-carboxamide]",3
3,"Cc1cnc(C(=O)N[C@H](c2nc3cc(Cl)cnc3n2C(C)C)C2CC2)cn1 [Example 10, N-[(S)-[6-chloro-3-(propan-2-yl)-3H-imidazo[4,5-b]pyridin-2-yl](cyclopropyl)methyl]-5-methylpyrazine-2-carboxamide]",4
4,"Cc1c(C#N)cnc2c1nc([C@H](CC1CC1)NC(=O)c1cnc(C(F)F)cn1)n2C(C)C [Example 11, N-[(1S)-1-[6-cyano-7-methyl-3-(propan-2-yl)-3H-imidazo[4,5-b]pyridin-2-yl]-2-cyclopropylethyl]-5-(difluoromethyl)pyrazine-2-carboxamide]",4
5,"CO[C@H](C)[C@H](NC(=O)c1cnc(C)cn1)c1nc2cc(C(F)(F)F)cnc2n1C(C)C [Example 12, N-[(1R,2R)-2-methoxy-1-[3-(propan-2-yl)-6-(trifluoromethyl)-3H-imidazo[4,5-b]pyridin-2-yl]propyl]-5-methylpyrazine-2-carboxamide]",4

# The remaining compounds from weak to strong by IC50, led by results:
row,IC50 [nM],Compound
1,3,"Cc1c(C#N)cnc2c1nc([C@@H](NC(=O)c1cnc(C(F)F)cn1)C1CCC1)n2C(C)C [Example 7, N-[(S)-[6-cyano-7-methyl-3-(propan-2-yl)-3H-imidazo[4,5-b]pyridin-2-yl](cyclobutyl)methyl]-5-(difluoromethyl)pyrazine-2-carboxamide]"
2,2,"COC(C)(C)[C@H](NC(=O)c1cnc(C)cn1)c1nc2c(C)c(C#N)cnc2n1C(C)C [Example 2, N-[(IR)-1-[6-cyano-7-methyl-3-(propan-2-yl)-3H-imidazo[4,5-b]pyridin-2-yl]-2-methoxy-2-methylpropyl]-5-methylpyrazine-2-carboxamide]"
3,2,"Cc1cnc(C(=O)N[C@H](c2nc3cc(C(F)(F)F)cnc3n2C(C)C)C2CC2)cn1 [Example 3, N-[(S)-cyclopropyl[3-(propan-2-y1)-6-(trifluoromethyl)-3H-imidazo[4,5-b]pyridin-2-y1]methyl]-5-methylpyrazine-2-carboxamide]"
4,2,"Cc1c(C#N)cnc2c1nc([C@@H](NC(=O)c1cnc(C(F)F)cn1)C1CC1)n2C(C)C [Example 4, N-[(S)-[6-cyano-7-methyl-3-(propan-2-yl)-3H-imidazo[4,5-b]pyridin-2-yl](cyclopropyl)methyl]-5-(difluoromethyl)pyrazine-2-carboxamide]"
5,2,"COc1c(Br)cnc2c1nc([C@@H](NC(=O)c1cnc(C)cn1)C1CC1)n2C(C)C [Example 5, N-[(S)-[6-bromo-7-methoxy-3-(propan-2-yl)-3H-imidazo[4,5-b]pyridin-2-yl](cyclopropyl)methyl]-5-methylpyrazine-2-carboxamide]"
6,2,"Cc1cnc(C(=O)N[C@@H](CC2CC2)c2nc3cc(C(F)(F)F)cnc3n2C(C)C)cn1 [Example 6, N-[(1S)-2-cyclopropyl-1-[3-(propan-2-yl)-6-(trifluoromethyl)-3H-imidazo[4,5-b]pyridin-2-yl]ethyl]-5-methylpyrazine-2-carboxamide]"
7,1,"COC(C)(C)[C@H](NC(=O)c1cnc(C(F)F)cn1)c1nc2c(C)c(C#N)cnc2n1C(C)C [Example 1, N-[(1R)-1-[6-cyano-7-methyl-3-(propan-2-yl)-3H-imidazo[4,5-b]pyridin-2-yl]-2-methoxy-2-methylpropyl]-5-(difluoromethyl)pyrazine-2-carboxamide]"
